Results as given in patent US4219566A, “Phenylglyoxylic acids and derivatives thereof” (Pfizer Inc., priority 1977, dated 1980).

What was measured:
[1] = system: pyruvate oxidation by diaphragm tissue from fat-fed rats; assay: Pyruvate oxidation (14C-pyruvate into CO2) by diaphragm tissue from fat-fed rats in vitro; type: cell-based; conditions: Rattus norvegicus, read-out: % Stimulation of pyruvate oxidation; for activation at 2000 µM: 2.0 mM compound in medium
Experimental: (1) increase the oxidation of glucose and/or pyruvate by isolated rat muscle preparation in vitro;
(1) (a) Diaphragm tissue is obtained from rats fed on a high fat diet similar to `Diet B` described by Zaragoza and Felber (Horm. Metab. Res. 1970, 2, 323). Pyruvate oxidation by such tissue is assessed by measurement of the rate of incorporation of carbon-14 carbon-14-labelled pyruvate into carbon dioxide in vitro, as described by Bringolf (Eur. J. Biochem. 1972, 26, 360). The rate of pyruvate oxidation is depressed by 50-75% compared with that by diaphragm tissue from rats fed on a normal diet. When the compounds of the formula (I) are added to the medium, they are found to stimulate pyruvate oxidation by diaphragm tissue from fat-fed rats in a dose dependent manner.
The degree of stimulation by the compounds of the formula (I) at a concentration of 2.0 mM (unless otherwise stated) is shown in the following Table.

[2] = system: pyruvate dehydrogenase (PDH); assay: Proportion of active pyruvate dehydrogenase (PDHa/PDHt) in hearts of fat-fed rats after dosing in vivo; design: species or system rat; conditions: heart of fat-fed rats
Experimental: (2) increase the proportion of the active form of the enzyme pyruvate dehydrogenase (PDH) in organs of animals (e.g. rats) in vivo; and
The ability of compounds of formula (I) to increase the proportion of the active form of the pyruvate dehydrogenase enzyme may be measured by the following test.
(2) Rats fed on a high fat diet as in test (1) (a), are treated either with placebo or with the compound of formula (I), by subcutaneous or intravenous injection or by oral administration, and at various times after treatment the rat hearts are removed and homogenized, under conditions which minimize changes in the proportion of the pyruvate dehydrogenase enzyme which is present in the active form, as described by Whitehouse and Randle (Biochem. J. 1973, 134, 651). The total amount of the enzyme present (PDHt) and the amount which is present in the active form (PDHa) are assessed by a method similar to that described by Taylor et al (J. Biol. Chem. 1973, 248, 73). The fat-feeding process is found to depress the ratio PDHa/PDHt from a normal value of about 0.7 to a value in the range from 0.05 to 0.2.

[3] = system: fasted, closed-chest, anesthetized beagle dogs; assay: Myocardial blood flow and metabolism in electrically paced, anesthetized beagle dogs, with or without isoprenaline; type: in vivo; conditions: 0.02 to 0.1 millimole/kg. intravenously; in the presence and absence of isoprenaline
From the text: (3) reduce oxygen demand and affect the relative utilization of carbohydrate and lipid metabolites by the electrically-paced heart of an anesthetized dog in the presence or absence of an isoprenaline stimulus.
The ability of compounds of formula (I) to reduce oxygen demand and affect the relative utilization of carbohydrate and lipid metabolites in the heart may be assessed by measuring the effect of the compounds on myocardial blood flow and metabolism in fasted, closed-chest, anesthetized beagle dogs, with cardiac catheterization to enable simultaneous sampling of coronary sinus and arterial blood to be carried out. Coronary sinus blood flow is measured by the hydrogen gas clearance technique described by Aukland et al (Circulation Res. 1964, 14, 164). The heart is paced electrically at 155 beats/min. and recordings of hemodynamic parameters (blood pressure, left ventricular pressure and the first derivative of the latter) are made continuously. Control measurements of coronary blood flow are made and samples of blood taken at 40 min. intervals, both in an untreated animal and in the same animal dosed with an infusion of isoprenaline ([…].), which both stimulates cardiac contraction and increases plasma free fatty acid levels. The compound of formula (I) is then administered intravenously and measurements are made and samples taken again, 40 minutes and 90 minutes later. The blood samples from the artery and coronary sinus are analyzed for oxyhemoglobin, pyruvate and free fatty acid (FFA) content, differences between those of the arterial and coronary sinus blood, when multiplied by coronary blood flow, being a measure of oxygen consumption, pyruvate uptake and FFA uptake by the myocardium respectively.

[4] = system: rats in which diabetes has been induced by treatment with streptozotocin; assay: Blood glucose levels in streptozotocin-diabetic rats; type: in vivo; conditions: averages for 8 animals
Experimental: (4) decrease blood glucose levels in animals made diabetic by chemical lesion of the pancreas.
The ability of compounds of formula (I) to decrease blood glucose levels may be assessed by measuring their effect on blood glucose levels in rats in which diabetes has been induced by treatment with streptozotocin (85 mg./kg.). Four days after such treatment, a number of rats are given 1 millimole/kg. of the compound by intraperitoneal injection and a similar number are given placebo. The doses are repeated after a further 24 hours and 48 hours. Blood samples are taken from a tail vein immediately before each dosage (which is 2 hours after removal of the animals from food) and 1, 2 and 3 hours after the third dose.

[5] = dose 1.2 mM/kg subcutaneous, 1.5 hours, placebo ratio 0.11-0.24 in the same line

Structure (SMILES) | activation at 2000 µM [1] [%] | PDHa/PDHt ratio at 1.5 hours (Compound) [2, 5] | also measured
CCSc1ccc(C(=O)C(=O)O)cc1 [R=SC2H5, R1=H, R2=OH, p-(ethylthio)phenylglyoxylic acid] | 158 | 0.73 | –
CCOC(=O)C(=O)c1ccc(O)cc1 [R=OH, R1=H, R2=OC2H5, ethyl p-hydroxyphenylglyoxylate] | 83 | – | –
CC(C)(C)CSc1ccc(C(=O)C(=O)O)cc1 [R=SCH2 . t-butyl, R1=H, R2=OH] | 67 | – | –
Cc1cc(C(=O)C(=O)O)ccc1O [R=OH, R1=3-CH3, R2=OH, p-hydroxy-m-methylphenylglyoxylic acid] | 21 | 0.31 | –
Cc1ccc(C(=O)C(=O)O)cc1 [R=CH3, R1=H, R2=OH, p-methylphenylglyoxylic acid] | 71 | 0.20 | –
COc1ccc(C(=O)C(=O)O)cc1Cl [R=OCH3, R1=3-Cl, R2=OH, m-chloro-p-methoxyphenylglyoxylic acid] | 52 | 0.35 | –
CCOC(=O)C(=O)c1ccc(OCC)cc1 [R=OC2H5, R1=H, R2=OC2H5, ethyl p-ethoxyphenylglyoxylate] | – | 0.35 | –
COc1ccc(C(=O)C(=O)O)cc1 [R=OCH3, R1=H, R2=OH, p-methoxyphenylglyoxylic acid] | 127 | 0.49 | –
O=C(O)C(=O)c1ccccc1 [R=H, R1=H, R2=OH, phenylglyoxylic acid] | – | 0.38 | activation at 1000 µM ([1]; at 1mM): 25%
O=C(O)C(=O)c1ccc(O)cc1 [p-hydroxyphenylglyoxylic acid] | 104 | 0.28 | duration of increased myocardial pyruvate uptake after dosing [3]: at least 90 minutes; myocardial blood flow [3]: increased; myocardial oxygen consumption [3]: decreased; myocardial pyruvate uptake [3]: increases myocardial pyruvate uptake; blood glucose level ([4]; 3 hours after the third dose, 1 millimole/kg. intraperitoneal, placebo 369±9): 344±9 mg./100 ml.; blood glucose level ([4]; after 2 days of treatment, immediately before third dose, 1 millimole/kg. intraperitoneal daily, baseline 376±6, placebo 383±10): 358±9 mg./100 ml.
O=C(O)C(=O)c1ccc(Cl)cc1 [R=Cl, R1=H, R2=OH, p-chlorophenylglyoxylic acid] | 71 | – | –
CCCCSc1ccc(C(=O)C(=O)O)cc1 [R=S . n-butyl, R1=H, R2=OH, p-(n-butylthio)phenylglyoxylic acid] | 113 | – | –
CCOc1ccc(C(=O)C(=O)O)cc1 [R=OC2H5, R1=H, R2=OH, p-ethoxyphenylglyoxylic acid] | 91 | 0.56 | –
O=C(O)C(=O)c1ccc(O)c(I)c1 [R=OH, R1=3-I, R2=OH, p-hydroxy-m-iodophenylglyoxylic acid] | 55 | – | –
CC(C)Sc1ccc(C(=O)C(=O)O)cc1 [R=S . isopropyl, R1=H, R2=OH, p-(isopropylthio)phenylglyoxylic acid] | 200 | – | –
CSc1ccc(C(=O)C(=O)O)cc1 [R=SCH3, R1=H, R2=OH, p-(methylthio)phenylglyoxylic acid] | 123 | – | PDHa/PDHt ratio at 1.5 hours (Compound) ([2]; first of two doses shown only in drawing 5, subcutaneous, placebo 0.20): 0.47; PDHa/PDHt ratio at 1.5 hours (Compound) ([2]; second of two doses shown only in drawing 5, subcutaneous, placebo 0.12): 0.24
